Results taken from ChEMBL document CHEMBL3588753, “Recent progress in the drug development of coumarin derivatives as potent antituberculosis agents” (2015).
Converted amounts (≈) assume the structure as drawn.

What was measured:
Type in all cases: functional
[1] = system: Mycobacterium tuberculosis; experiment: Antimycobacterial activity against Mycobacterium tuberculosis H37Rv assessed as growth inhibition by Alamar Blue staining-based broth microdilution assay; parameters: inhibition (INH): concentration or dose not given beside the values; settings: for MIC: Mycobacterium tuberculosis, H37Rv
[2] = system: Mycobacterium tuberculosis; experiment: Antimycobacterial activity against Mycobacterium tuberculosis H37Rv assessed as growth inhibition at 6.25 ug/ml by Alamar Blue staining-based broth microdilution assay
[3] = system: Mycobacterium tuberculosis; experiment: Antimycobacterial activity against Mycobacterium tuberculosis H37Rv assessed as growth inhibition at 128 ug/ml by Alamar Blue staining-based broth microdilution assay
[4] = system: Mycobacterium tuberculosis; experiment: Antimycobacterial activity against Mycobacterium tuberculosis H37Rv assessed as growth inhibition at 128 ug/ml by low-oxygen recovery assay
[5] = system: Mycolicibacterium smegmatis; experiment: Antimicrobial activity against Mycobacterium smegmatis
[6] = system: Mycolicibacterium phlei; experiment: Antimycobacterial activity against Mycobacterium phlei
[7] = system: Mycobacterium tuberculosis; experiment: Ratio of RIF IC50 to compound IC50 Mycobacterium tuberculosis H37Rv assessed as growth inhibition
[8] = system: Mycobacterium tuberculosis; experiment: Ratio of CPFX IC50 to compound IC50 Mycobacterium tuberculosis H37Rv assessed as growth inhibition
[9] = system: Mycobacterium tuberculosis; experiment: Ratio of GTFX IC50 to compound IC50 Mycobacterium tuberculosis H37Rv assessed as growth inhibition
[10] = system: Mycobacterium tuberculosis; experiment: Ratio of MXFX IC50 to compound IC50 Mycobacterium tuberculosis H37Rv assessed as growth inhibition
[11] = system: Mycobacterium tuberculosis; experiment: Ratio of 8-OCH3 IC50 to compound IC50 Mycobacterium tuberculosis H37Rv assessed as growth inhibition
[12] = system: Mycolicibacterium fortuitum; experiment: Antimycobacterial activity against Mycobacterium fortuitum

Question: Which “inhibition (INH)” value [1] does the source give for `N#Cc1c(/C=C/c2c3ccccc3cc3ccccc23)c2cc(Cl)ccc2oc1=O` here?
Answer: 81%

Question: How did the MIC [1] turn out when `Cc1ccc(O)c(C(=O)c2ccc(-c3cc4ccccc4oc3=O)nc2)c1` was run?
Answer: 100 µg/mL (≈ 280 µM)

Question: Which “inhibition (INH)” value [1] does the source give for `N#Cc1c(/C=C/c2cccc(-c3ccccc3)c2)c2cc(Cl)ccc2oc1=O` here?
Answer: 72%

Question: For `Cc1cc(=O)oc2cc(OCc3cn(Cc4cc(=O)oc5ccc(Cl)cc45)nn3)ccc12`, which MIC [1] is on record?
Answer: 6.25 µg/mL (≈ 13.9 µM)

Question: `O=C(N/N=C/c1cccc(O)c1)c1cc2ccccc2oc1=O` was tested. Which MIC [1] did it give?
Answer: 50 µg/mL (≈ 162 µM)

Question: For `C=CC(C)(C)c1c2c(c(OC)c3ccc(=O)oc13)C=CC(C)(C)O2` [DENTATIN], which MIC [1] is on record?
Answer: 50 µg/mL (≈ 153 µM)

Question: What does the source list for `O=C(CSc1nnc(-c2cc3ccccc3oc2=O)o1)Nc1nc2ccc(Br)cc2s1`?
Answer: inhibition (INH) [1]: 99%; MIC [1]: 12.5 µg/mL (≈ 24.3 µM)

Question: How did the inhibition at 6.25 µg/mL [2] turn out when `O=c1oc2ccccc2c(O)c1C1=Nc2ccccc2SC(c2ccccc2O)C1` (centres undefined) was run?
Answer: 94%

Question: What does the source list for `COc1ccc(C2NC(=O)Nc3c2c(=O)oc2ccc(C)cc32)cc1` (centres undefined)?
Answer: inhibition at 128 µg/mL [3]: 58%; inhibition at 128 µg/mL [4]: 62%

Question: For `Cc1ccc(C)c2c(CC(=O)N/N=C/c3ccccc3)cc(=O)oc12`, which “inhibition (INH)” value [1] is on record?
Answer: 70%

Question: `O=c1oc2ccccc2c(O)c1C1=Nc2ccccc2SC(c2c[nH]c3ccccc23)C1` (centres undefined) was tested. Which inhibition at 6.25 µg/mL [2] did it give?
Answer: 80%

Question: How did the “inhibition (INH)” value [1] turn out when `COc1cc(/C=C/c2c(C#N)c(=O)oc3ccc(Cl)cc23)cc(OC)c1OC` was run?
Answer: 87%

Question: For `O=C(CN1CCN(c2cc3c(cc2F)c(=O)c(C(=O)O)cn3C2CC2)CC1)c1cc2ccc(O)cc2oc1=O`, which MIC [1] is on record?
Answer: 0.5 µg/mL (≈ 0.937 µM)

Question: What about the MIC [5] of the same molecule?
Answer: 3.12 µg/mL (≈ 5.85 µM)

Question: With `C=CC(C)(C)c1c2c(c(O)c3ccc(=O)oc13)C(=O)CC(C)(C)O2` as the molecule, how does the MIC [1] read?
Answer: 200 µg/mL (≈ 609 µM)

Question: For `CC(=O)OC/C(C)=C/CC/C(C)=C/CC/C(C)=C/Cc1c(O)c2ccccc2oc1=O`, which MIC [6] is on record?
Answer: 8 µg/mL (≈ 18.8 µM)

Question: What about the MIC [5] of the same molecule?
Answer: 8 µg/mL (≈ 18.8 µM)

Question: Which MIC [5] does the source give for `COc1c2c(cc3oc(=O)c(-c4ccc(O)cc4)c(O)c13)OC(C)(C)C=C2` here?
Answer: 18 µg/mL (≈ 49.1 µM)

Question: What does the source list for `COc1ccc2cc(C(=O)CN3CCN(c4c(F)cc5c(=O)c(C(=O)O)cn(C6CC6)c5c4OC)CC3)c(=O)oc2c1`?
Answer: Ratio IC50 [7]: 2; MIC [1]: 0.25 µg/mL (≈ 0.433 µM); Ratio IC50 [8]: 2; Ratio IC50 [9]: 2; MIC [5]: 6.25 µg/mL (≈ 10.8 µM); Ratio IC50 [10]: 2; Ratio IC50 [11]: 2

Question: Which MIC [1] does the source give for `Cc1cc(=O)oc2cc(OCc3cn(Cc4cc(=O)oc5ccc6ccccc6c45)nn3)ccc12` here?
Answer: 6.25 µg/mL (≈ 13.4 µM)

Question: With `CC(C)=CCC/C(C)=C/CC/C(C)=C/Cc1c(O)c2ccccc2oc1=O` as the molecule, how does the MIC [5] read?
Answer: 0.5 µg/mL (≈ 1.36 µM)

Question: What about the MIC [12] of the same molecule?
Answer: 2 µg/mL (≈ 5.46 µM)

Question: Which results are given for `COc1ccc(-c2cc(-c3ccc(Nc4cc(=O)oc5ccccc45)cc3)nc(N)c2C#N)cc1OC`?
Answer: inhibition (INH) [1]: 99%; MIC [1]: 12.5 µg/mL (≈ 25.5 µM)

Question: What does the source list for `O=C(CSc1nnc(-c2cc3ccccc3oc2=O)o1)Nc1ccc(I)cc1`?
Answer: inhibition (INH) [1]: 99%; MIC [1]: 12.5 µg/mL (≈ 24.7 µM)

Question: Which “inhibition (INH)” value [1] does the source give for `CN(C)c1ccc(/C=C/c2c(C#N)c(=O)oc3ccc(Cl)cc23)cc1` here?
Answer: 79%

Question: How did the MIC [6] turn out when `C/C(=C\CC/C(C)=C/Cc1c(O)c2ccccc2oc1=O)CC/C=C(\C)COC(=O)c1ccccc1` was run?
Answer: 2 µg/mL (≈ 4.11 µM)

Question: What about the MIC [5] of the same molecule?
Answer: 2 µg/mL (≈ 4.11 µM)

Question: Which MIC [1] does the source give for `C=CC(C)(C)c1c(O)c2c(c3ccc(=O)oc13)OC(C)(C)C=C2` here?
Answer: 100 µg/mL (≈ 320 µM)

Question: What does the source list for `O=C(c1ccncc1)n1nc(-c2ccc(F)cc2)cc1-c1cc2ccccc2oc1=O`?
Answer: inhibition (INH) [1]: 80.09%; MIC [1]: 0.625 µg/mL (≈ 1.52 µM)

Question: How did the inhibition at 128 µg/mL [3] turn out when `COc1ccc(C2NC(=O)Nc3c2c(=O)oc2ccc(C)cc32)cc1OC` (centres undefined) was run?
Answer: 55%

Question: And the inhibition at 128 µg/mL [4]?
Answer: 35%

Question: For `Cc1ccc(C)c2c(CC(=O)N/N=C/c3ccccc3[N+](=O)[O-])cc(=O)oc12`, which “inhibition (INH)” value [1] is on record?
Answer: 65%

Question: `COc1cc2oc(=O)ccc2cc1[C@H]1OC(=O)[C@]2(C)O[C@H]12` was tested. Which MIC [1] did it give?
Answer: 50 µg/mL (≈ 173 µM)

Question: With `COc1ccc2ccc(=O)oc2c1C(CO)=C(C)C` as the molecule, how does the MIC [1] read?
Answer: 50 µg/mL (≈ 192 µM)

Question: Which inhibition at 6.25 µg/mL [2] does the source give for `Cc1cc2oc(=O)cc(Nc3ccc4ccccc4c3)c2cc1Cl` here?
Answer: 100%

Question: Which results are given for `O=C1Nc2c(c(=O)oc3ccccc23)C(c2ccccc2O)N1` (centres undefined)?
Answer: inhibition at 128 µg/mL [3]: 45%; inhibition at 128 µg/mL [4]: 37%

Question: With `O=c1ccc2c(O)c3ccoc3cc2o1` [BERGAPTOL] as the molecule, how does the MIC [1] read?
Answer: 100 µg/mL (≈ 495 µM)

Question: Which inhibition at 6.25 µg/mL [2] does the source give for `O=c1cc(Nc2ccc3ccccc3c2)c2ccccc2o1` here?
Answer: 81%

Question: Which MIC [1] does the source give for `Cc1cc(=O)oc2cc(OCc3cn(Cc4cc(=O)oc5cc(Cl)ccc45)nn3)ccc12` here?
Answer: 6.25 µg/mL (≈ 13.9 µM)

Question: `O=c1oc2ccccc2c(O)c1C1=Nc2ccccc2SC(c2ccc([N+](=O)[O-])cc2)C1` (centres undefined) was tested. Which inhibition at 6.25 µg/mL [2] did it give?
Answer: 93%

Question: Which results are given for `C/C(=C\CC/C(C)=C/CC/C(C)=C/Cc1c(O)c2ccccc2oc1=O)CO`?
Answer: MIC [6]: 16 µg/mL (≈ 41.8 µM); MIC [5]: 16 µg/mL (≈ 41.8 µM)

Question: `O=C(N/N=C/c1ccc([N+](=O)[O-])cc1)c1cc2ccccc2oc1=O` was tested. Which MIC [1] did it give?
Answer: 100 µg/mL (≈ 296 µM)

Question: How did the MIC [1] turn out when `Cc1ccc(O)c(C(=O)c2ccc(-c3cc4cc(Br)ccc4oc3=O)nc2)c1` was run?
Answer: 100 µg/mL (≈ 229 µM)

Question: With `O=C(Cc1cc(=O)oc2cc(O)ccc12)N/N=C/c1cccc([N+](=O)[O-])c1` as the molecule, how does the “inhibition (INH)” value [1] read?
Answer: 93%

Question: How did the MIC [1] turn out when `COc1cc2ccc(=O)oc2cc1O` [SCOPOLETIN] was run?
Answer: 42.1 µg/mL (≈ 219 µM)

Question: `COc1cccc2cc(-c3ccc(C(=O)c4cc(C)ccc4O)cn3)c(=O)oc12` was tested. Which MIC [1] did it give?
Answer: 62.5 µg/mL (≈ 161 µM)
